In ChEMBL document CHEMBL2346612, “Pregna-5,17(20)-dien-21-oyl amides affecting sterol and triglyceride biosynthesis in Hep G2 cells” (Bioorg Med Chem Lett, 2013):
Calls of active or inactive are those of the source. No cut-off for these calls is given here.

Columns and labels:
[1] = system: HepG2; assay: Reduction in cholesterol biosynthesis in human HepG2 cells incubated at 2 uM for 14 hrs followed by sodium [14C]-acetate addition measured after 4 hrs; assay type: functional, cell-based
[2] = system: HepG2; assay: Effect on sterol biosynthesis in human HepG2 cells at 30 uM; assay type: functional, cell-based
[3] = system: HepG2; assay: Effect on triglyceride biosynthesis in human HepG2 cells at 30 uM; assay type: functional, cell-based
[4] = system: HepG2; assay: Stimulation of triglyceride biosynthesis in human HepG2 cells incubated at 2 uM for 14 hrs followed by sodium [14C]-acetate addition measured after 4 hrs; assay type: functional, cell-based
[5] = Cytotoxicity against human HepG2 cells assessed as cell viability after 48 hrs by MTT assay; assay type: cell-based; parameters: concentration or dose not given beside the values; conditions: read-out: Activity
[6] = system: HepG2; assay: Cytotoxicity against human HepG2 cells assessed as cell viability up to 2 uM after 48 hrs by MTT assay; assay type: cell-based; conditions: hepg2, 48 h
[7] = system: HepG2; assay: Stimulation of triglyceride biosynthesis in human HepG2 cells incubated at 5 uM for 14 hrs followed by sodium [14C]-acetate addition measured after 4 hrs; assay type: functional, cell-based
[8] = system: HepG2; assay: Reduction in cholesterol biosynthesis in human HepG2 cells incubated at 5 uM for 14 hrs followed by sodium [14C]-acetate addition measured after 4 hrs; assay type: functional, cell-based

Compound | Activity [1] | Activity [2] | Activity [3] | Activity [4] | viability at 48 h [5] | Activity [6] | Activity [7] | Activity [8]
C[C@H](CCCC(C)(C)O)[C@H]1CC[C@H]2[C@@H]3CC=C4C[C@@H](O)CC[C@]4(C)[C@H]3CC[C@]12C | Active | inactive | inactive | Active | > 70% | Non-toxic |  | 
CN(C)C(=O)CNC(=O)/C=C1\CC[C@H]2[C@@H]3CC=C4C[C@@H](O)CC[C@]4(C)[C@H]3CC[C@]12C |  | inactive | inactive |  | > 70% |  | Active | Active
C[C@]12CC[C@H](O)CC1=CC[C@@H]1[C@@H]2CC[C@]2(C)/C(=C\C(=O)NCCO)CC[C@@H]12 |  | inactive | inactive |  | > 70% |  | inactive | inactive
CC(CO)(CO)NC(=O)/C=C1/CC[C@H]2[C@@H]3CC=C4C[C@@H](O)CC[C@]4(C)[C@H]3CC[C@]12C |  | inactive | inactive |  | > 70% |  | inactive | inactive
CC(C)CCNC(=O)/C=C1\CC[C@H]2[C@@H]3CC=C4C[C@@H](O)CC[C@]4(C)[C@H]3CC[C@]12C |  | inactive | inactive |  | > 70% |  | Active | Active
CC(C)CCNC(=O)/C=C1/CC[C@H]2[C@@H]3CC=C4C[C@@H](O)CC[C@]4(C)[C@H]3CC[C@]12C |  | inactive | inactive |  | > 70% |  | inactive | inactive
CC(C)(CO)NC(=O)/C=C1/CC[C@H]2[C@@H]3CC=C4C[C@@H](O)CC[C@]4(C)[C@H]3CC[C@]12C |  | inactive | inactive |  | > 70% |  | inactive | inactive
C[C@]12CC[C@H](O)CC1=CC[C@@H]1[C@@H]2CC[C@]2(C)/C(=C/C(=O)NCCO)CC[C@@H]12 |  | inactive | inactive |  | > 70% |  | Active | Active
C[C@]12CC[C@H](O)CC1=CC[C@@H]1[C@@H]2CC[C@]2(C)/C(=C/C(=O)NC(CO)(CO)CO)CC[C@@H]12 |  | inactive | inactive |  | > 70% |  |  | 
CC(C)(CO)NC(=O)/C=C1\CC[C@H]2[C@@H]3CC=C4C[C@@H](O)CC[C@]4(C)[C@H]3CC[C@]12C |  | inactive | inactive |  | > 70% |  |  | 
CC(CO)(CO)NC(=O)/C=C1\CC[C@H]2[C@@H]3CC=C4C[C@@H](O)CC[C@]4(C)[C@H]3CC[C@]12C |  | inactive | inactive |  | > 70% |  |  | 
C[C@]12CC[C@H](O)CC1=CC[C@@H]1[C@@H]2CC[C@]2(C)/C(=C\C(=O)NC(CO)(CO)CO)CC[C@@H]12 |  | inactive | inactive |  | > 70% |  | inactive | inactive
COC(=O)CNC(=O)/C=C1\CC[C@H]2[C@@H]3CC=C4C[C@@H](O)CC[C@]4(C)[C@H]3CC[C@]12C |  | inactive | inactive |  | > 70% |  | Active | inactive
